Read-outs that look alike come from different tables or passages of the source.
How the values were obtained:
Chimeric Hxt11/2 [1] = system: T1, Chimeric Hxt11/2; experiment: […] sugar uptake by yeast cells, filtration; format: cell-based, Saccharomyces cerevisiae; conditions: labelled compound, mineral medium, strain DS68625
T1 construct: single-chain fusion: Hxt11 residues 1-54 replace Hxt2 residues 1-49, rest is Hxt2; untagged, pRS313-P7T7; expressed in S. cerevisiae DS68625 (hxt1-7, gal2 deleted)

Chimeric Hxt11/2 [2] = system: T1, Chimeric Hxt11/2; experiment: […] sugar uptake by yeast cells, filtration; format: cell-based, Saccharomyces cerevisiae; conditions: labelled compound; 0.5-500 mM xylose, 1 min uptake, mineral medium, strain DS68625; Hxt2 numbering; read-out: K m (mM) / Xylose

| Compound | Km (Chimeric Hxt11/2 [1]; 0.5-500 mM xylose, 1 min uptake, read-out: K m (mM) / Xylose) | Km (Chimeric Hxt11/2 [2]) | Km (Chimeric Hxt11/2 [1]; 0.1-500 mM glucose, 15 s uptake, read-out: K m (mM) / Glucose) |
| --- | --- | --- | --- |
| OC1OC[C@@H](O)[C@H](O)[C@H]1O (stereo partly drawn) [D-xylose] | 69 ± 9.1 mM | 57.3 ± 5.2 mM | – |
| OC[C@H]1OC(O)[C@H](O)[C@@H](O)[C@@H]1O (stereo partly drawn) [D-glucose] | – | – | 17.4 ± 3.8 mM |

Source: publication PMC5575463, “The amino‐terminal tail of Hxt11 confers membrane stability to the Hxt2 sugar transporter and improves xylose fermentation in the presence of acetic acid” (Biotechnology and Bioengineering, 2017)
